Data from ChEMBL document CHEMBL1153630, “Structure-activity relationship (SAR) of parthenin analogues with pro-apoptotic activity: Development of novel anti-cancer leads” (Bioorg Med Chem Lett, 2009).
Activity calls are given as the source filed them. No cut-off for these calls is given here.

Assays:
HeLa = assay: Cytotoxicity against human HeLa cells after 48 hrs by MTT assay; format: functional, cell-based
HL-60 [1] = assay: Cytotoxicity against human HL60 cells after 48 hrs by MTT assay; format: functional, cell-based; details: HL-60, 48 h
HL-60 [2] = assay: Induction of apoptosis in human HL60 cells assessed as DNA population at sub G0/G1 phase at 10 uM after 6 hrs by flow cytometry; format: functional
[3] = molecular target: DNA topoisomerase 2-alpha (Homo sapiens) (UniProt P11388); assay: Inhibition of human topoisomerase 2-mediated relaxation of supercoiled plasmid DNA at 10 uM after 1 hr by electrophoresis analysis
DNA topoisomerase 2-alpha (Homo sapiens), sequence (P11388 whole entry): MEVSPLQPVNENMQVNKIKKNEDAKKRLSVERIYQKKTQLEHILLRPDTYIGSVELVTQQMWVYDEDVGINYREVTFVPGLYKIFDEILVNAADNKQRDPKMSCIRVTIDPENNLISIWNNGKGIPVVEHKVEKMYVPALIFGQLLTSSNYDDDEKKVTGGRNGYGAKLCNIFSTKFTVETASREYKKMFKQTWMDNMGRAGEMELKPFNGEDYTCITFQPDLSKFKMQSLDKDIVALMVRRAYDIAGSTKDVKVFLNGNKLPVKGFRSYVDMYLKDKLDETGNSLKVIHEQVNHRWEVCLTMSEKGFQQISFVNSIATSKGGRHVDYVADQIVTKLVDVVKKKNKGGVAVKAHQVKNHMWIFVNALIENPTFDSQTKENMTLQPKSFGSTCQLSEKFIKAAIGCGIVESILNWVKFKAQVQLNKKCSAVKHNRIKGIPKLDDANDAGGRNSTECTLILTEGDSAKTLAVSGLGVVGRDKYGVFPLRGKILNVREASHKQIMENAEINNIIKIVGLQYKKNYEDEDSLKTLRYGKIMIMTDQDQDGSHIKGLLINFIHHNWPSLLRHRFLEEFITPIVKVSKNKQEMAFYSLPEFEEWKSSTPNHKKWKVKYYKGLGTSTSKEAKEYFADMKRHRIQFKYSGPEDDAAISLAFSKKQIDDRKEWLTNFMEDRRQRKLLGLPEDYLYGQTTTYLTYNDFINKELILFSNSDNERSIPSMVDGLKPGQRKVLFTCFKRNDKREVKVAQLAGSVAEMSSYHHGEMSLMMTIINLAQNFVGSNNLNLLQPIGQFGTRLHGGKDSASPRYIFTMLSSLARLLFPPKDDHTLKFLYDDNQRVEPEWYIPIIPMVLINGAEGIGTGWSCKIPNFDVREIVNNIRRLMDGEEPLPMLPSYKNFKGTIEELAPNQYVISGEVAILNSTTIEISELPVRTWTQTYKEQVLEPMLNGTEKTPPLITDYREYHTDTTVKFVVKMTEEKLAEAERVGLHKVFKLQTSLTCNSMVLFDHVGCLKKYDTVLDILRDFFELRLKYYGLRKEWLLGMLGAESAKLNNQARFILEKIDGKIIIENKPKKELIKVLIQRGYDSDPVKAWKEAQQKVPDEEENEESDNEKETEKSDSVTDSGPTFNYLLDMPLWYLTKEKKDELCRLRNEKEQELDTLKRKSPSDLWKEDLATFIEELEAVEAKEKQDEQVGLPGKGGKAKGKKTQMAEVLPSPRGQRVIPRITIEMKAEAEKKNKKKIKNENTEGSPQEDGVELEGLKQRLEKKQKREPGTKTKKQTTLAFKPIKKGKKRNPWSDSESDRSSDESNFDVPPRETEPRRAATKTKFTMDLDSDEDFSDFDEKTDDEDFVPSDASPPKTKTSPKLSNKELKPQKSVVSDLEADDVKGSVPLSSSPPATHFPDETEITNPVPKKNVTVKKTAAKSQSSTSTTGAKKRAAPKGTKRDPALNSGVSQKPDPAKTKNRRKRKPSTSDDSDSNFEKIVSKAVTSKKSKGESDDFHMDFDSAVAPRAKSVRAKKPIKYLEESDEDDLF

[4] = molecular target: DNA topoisomerase 2-alpha (Homo sapiens) (UniProt P11388); assay: Inhibition of human topoisomerase 2-mediated relaxation of supercoiled plasmid DNA at 100 uM after 1 hr by electrophoresis analysis
HL-60 [5] = assay: Inhibition of telomerase expression in human HL60 cells at 10 uM after 6 hrs by Western blot analysis; format: functional; details: HL-60, 6 h

inhibition [3]	inhibition [4]	SMILES	IC50 (HeLa)	IC50 (HL-60 [1])	Activity (HL-60 [2])	inhibition at 10 µM (HL-60 [5])
–	–	CC(=O)OC1C=C[C@@]2(O)[C@@H](C)CC[C@H]3C(C)C(=O)O[C@H]3[C@]12C (some centres undefined)	74 µM	48 µM	0.82%	–
–	–	C=C1C(=O)O[C@@H]2[C@H]1CC[C@H](C)[C@]13OC(c4ccc5c(c4)OCO5)O[C@H]1/C(=C/c1ccc4c(c1)OCO4)C(=O)[C@@]23C (some centres undefined)	57 µM	5 µM	58.75%	–
–	–	C=C1C(=O)O[C@@H]2[C@H]1CC[C@H](C)[C@]1(O)[C@H](OCC)CC(=O)[C@@]21C	76 µM	60 µM	4.51%	–
–	–	C[C@H]1CC[C@H]2[C@H](COCCO)C(=O)O[C@H]2[C@]2(C)C(=O)C=C[C@@]12O	76 µM	44 µM	2.05%	–
–	–	C=C1C(=O)O[C@@H]2[C@H]1CC[C@H](C)[C@]13OC(c4ccc(OC)cc4)O[C@H]1/C(=C/c1ccc(OC)cc1)C(=O)[C@@]23C (some centres undefined)	72 µM	46 µM	2.17%	–
–	–	C=C1C(=O)O[C@@H]2[C@H]1CC[C@H](C)[C@]1(O)[C@@H](O)/C(=C/c3ccc(Cl)cc3)C(=O)[C@@]21C	44 µM	9 µM	19.38%	–
–	–	C=C1C(=O)O[C@@H]2[C@H]1CC[C@H](C)[C@]1(O)C=CC(=O)[C@@]21C [PARTHENIN]	60 µM	17 µM	13.69%	–
–	–	C=C1C(=O)O[C@@H]2[C@H]1CC[C@H](C)[C@]13OCO[C@H]1CC(=O)[C@@]23C	65 µM	49 µM	2.86%	–
–	–	CC1C(=O)O[C@@H]2[C@H]1CC[C@H](C)[C@]1(O)C=CC(O)[C@@]21C (some centres undefined)	64 µM	48 µM	1.43%	–
–	–	C=C1C(=O)O[C@@H]2[C@H]1CC[C@H](C)[C@]13OC(C)O[C@H]1CC(=O)[C@@]23C (some centres undefined)	70 µM	41 µM	1.9%	–
–	–	C=C1C(=O)O[C@@H]2[C@H]1CC[C@H](C)[C@]1(O)[C@H](O)CC(=O)[C@@]21C	68 µM	50 µM	1.17%	–
–	–	C=C1C(=O)O[C@@H]2[C@H]1CC[C@H](C)[C@]13OC(/C=C/c4ccccc4)O[C@H]1/C(=C/C=C/c1ccccc1)C(=O)[C@@]23C (some centres undefined)	25 µM	7 µM	82.97%	–
–	–	C=C1C(=O)O[C@@H]2[C@H]1CC[C@H](C)[C@]1(O)C=C(C(O)c3ccccc3)C(=O)[C@@]21C (some centres undefined)	58 µM	9 µM	13.89%	–
–	–	C=C1C(=O)O[C@@H]2[C@H]1CC[C@H](C)[C@]1(O)[C@H](OCCO)CC(=O)[C@@]21C	72 µM	44 µM	1.81%	–
–	–	C=C1C(=O)O[C@@H]2[C@H]1CC[C@H](C)[C@]13OC(c4ccccc4)O[C@H]1/C(=C/c1ccccc1)C(=O)[C@@]23C (some centres undefined)	31 µM	6 µM	69.28%	–
Active	Active	C=C1C(=O)O[C@@H]2[C@H]1CC[C@H](C)[C@]13OC(c4ccc(Cl)cc4)O[C@H]1/C(=C/c1ccc(Cl)cc1)C(=O)[C@@]23C (some centres undefined)	12 µM	3 µM	94.1%	80%
–	–	C=C1C(=O)O[C@@H]2[C@H]1CC[C@H](C)[C@]1(O)C=CC(=O)O[C@@]21C	67 µM	18 µM	2.98%	–
–	–	C=C1C(=O)O[C@@H]2[C@H]1CC[C@H](C)[C@]1(O)C=C(CO)C(=O)[C@@]21C	65 µM	16 µM	3.01%	–
–	–	C[C@H]1CC[C@H]2[C@H](COCCO)C(=O)O[C@H]2[C@]2(C)C(=O)C[C@@H](OCCO)[C@@]12O	72 µM	55 µM	2.19%	–

inhibition [3]	inhibition [4]	SMILES	IC50 (HeLa)	IC50 (HL-60 [1])	Activity (HL-60 [2])	inhibition at 10 µM (HL-60 [5])
–	–	C[C@H]1CC[C@@H]2[C@@H](OC(=O)C2(Br)CBr)[C@]2(C)C(=O)C(Br)=C[C@@]12O (some centres undefined)	76 µM	13 µM	2.17%	–
–	–	C=C1C(=O)O[C@@H]2[C@H]1CC[C@H](C)[C@]1(O)C=C(C(O)c3ccc4c(c3)OCO4)C(=O)[C@@]21C (some centres undefined)	73 µM	18 µM	2.13%	–
–	–	C=C1C(=O)O[C@@H]2[C@H]1CC[C@H](C)[C@]1(O)C=C(C(O)/C=C/c3ccccc3)C(=O)[C@@]21C (some centres undefined)	78 µM	46 µM	2.44%	–
–	–	C=C1C(=O)O[C@@H]2[C@H]1CC[C@H](C)[C@]1(O)[C@H](OCCC)CC(=O)[C@@]21C	74 µM	18 µM	3.21%	–
–	–	C=C1C(=O)O[C@@H]2[C@H]1CC[C@H](C)[C@]1(O)C=C(C(O)c3ccc(Cl)cc3)C(=O)[C@@]21C (some centres undefined)	70 µM	17 µM	2.76%	–
–	–	C=C1C(=O)O[C@@H]2[C@H]1CC[C@H](C)[C@]13OC(Cc4ccco4)O[C@H]1/C(=C/Cc1ccco1)C(=O)[C@@]23C (some centres undefined)	68 µM	5 µM	42.38%	–
–	–	C[C@H]1CC[C@@H]2[C@@H](OC(=O)C2(O)CBr)[C@]2(C)C(=O)C=C[C@@]12O (some centres undefined)	64 µM	12 µM	3.25%	–
–	–	C=C1C(=O)O[C@@H]2[C@H]1CC[C@H](C)[C@]1(O)C=C(/C=C/CCCCC)C(=O)[C@@]21C	47 µM	24 µM	6.78%	–
–	–	C=C1C(=O)O[C@@H]2[C@H]1CCC(C)=C1C=CC(=O)[C@]12C	74 µM	16 µM	2.95%	–
–	–	C=C1C(=O)O[C@@H]2[C@H]1CC[C@H](C)[C@]1(O)[C@H](OC)CC(=O)[C@@]21C	68 µM	32 µM	1.95%	–
–	–	C=C1C(=O)O[C@@H]2[C@H]1CC[C@H](C)[C@]1(O)[C@H](OCCCC)CC(=O)[C@@]21C	70 µM	42 µM	1.9%	–
–	–	C=C1C(=O)O[C@@H]2[C@H]1CC[C@H](C)[C@]1(O)C=C(/C=C/CCC)C(=O)[C@@]21C	68 µM	42 µM	2.33%	–
–	–	C=C1C(=O)O[C@@H]2[C@H]1CC[C@H](C)[C@]13OC(c4ccc(OC)c(OC)c4)O[C@H]1/C(=C/c1ccc(OC)c(OC)c1)C(=O)[C@@]23C (some centres undefined)	32 µM	6 µM	81.38%	–
–	–	C=C1C(=O)O[C@@H]2[C@H]1CC[C@H](C)[C@]1(O)C=C(/C=C/CC)C(=O)[C@@]21C	73 µM	45 µM	1.6%	–
–	–	C[C@H]1CC[C@@H]2[C@@H](OC(=O)C2(Br)CBr)[C@]2(C)C(=O)C=C[C@@]12O (some centres undefined)	67 µM	12 µM	1.93%	–
–	–	C=C1C(=O)O[C@@H]2[C@H]1CC[C@H](C)[C@]13OCO[C@H]1C(CO)(CO)C(=O)[C@@]23C	70 µM	17 µM	2.61%	–
–	–	C[C@H]1CC[C@@H]2[C@@H](OC(=O)C2(Br)CBr)[C@]2(C)C(=O)C(Br)C(Br)[C@@]12O (some centres undefined)	61 µM	8 µM	18.33%	–
–	–	C=C1C(=O)O[C@@H]2[C@H]1CC[C@H](C)[C@]13OC(CC)O[C@H]1CC(=O)[C@@]23C (some centres undefined)	65 µM	38 µM	2.71%	–
